Common to all, as to assay type: functional, cell-based
Assay [1] can be described thus: Cytotoxicity against Homo sapiens (human) SMMC-7404 cells assessed as cell viability after 72 hr by MTT assay. (In general: Tetrazolium assays rely on reduction of a dye to a coloured formazan, in cell work by metabolically active cells.)
Assay [2] can be described thus: Cytotoxicity against Homo sapiens (human) MGC7901 cells assessed as cell viability after 72 hr by MTT assay.
The subject of another assay is HeLa. As to the kind of experiment: Cytotoxicity against Homo sapiens (human) HeLa cells assessed as cell viability after 72 hr by MTT assay.

Our source for the IC50 values is ChEMBL document CHEMBL3044644, “Syntheses and antiproliferative activity of some sulfated hydroximinosterols” (Med Chem Res, 2013).

SMILES strings stand for the structures.

Usually IC50 stands for the concentration that inhibits the measured activity by half. For the compound `CC[C@H](/C=C/[C@@H](C)[C@H]1CC[C@H]2[C@@H]3C/C(=N/O)C4C[C@@H](OS(=O)(=O)[O-])CC[C@]4(C)[C@H]3CC[C@]12C)C(C)C.[Na+]` (some centres not stated), the IC50 was greater than 100 µM in assay [1], 27.7 µM in assay [2] and 14.3 µM with HeLa.
Regarding `CC(C)CCC[C@@H](C)[C@H]1CC[C@H]2[C@@H]3C[C@H](OS(=O)(=O)[O-])C4C/C(=N/O)CC[C@]4(C)[C@H]3CC[C@]12C.[Na+]` (some centres not stated), the IC50 in assay [1] was determined as 10.2 µM; in assay [2], 33.3 µM; in the assay on HeLa it was 12.5 µM.
Take `CC(C)CCC[C@@H](C)[C@H]1CC[C@H]2[C@@H]3C/C(=N/O)C4C[C@@H](OS(=O)(=O)[O-])CC[C@]4(C)[C@H]3CC[C@]12C.[Na+]` (some centres not stated): the concentration for half-maximal inhibition (IC50) came out at 12.9 µM in assay [1], 6.5 µM in assay [2] and 9.6 µM in the assay with HeLa.
Taken in the same sequence, the figures for `CC(C)CCC[C@@H](C)[C@H]1CC[C@H]2[C@@H]3C/C(=N/O)C4=C[C@@H](OS(=O)(=O)[O-])CC[C@]4(C)[C@H]3CC[C@]12C.[Na+]` were 62.2 µM, greater than 100 µM and 25.3 µM.
